According to patent US4620014A, “2-furylbutyrolactones and methods for using same” (priority 1983, dated 1986):

Key:
CD rats = details: 14 days
Protocol: (§1) Single oral dose LD50 in CD-1 mice and CD rats, obtained from Charles River U.K. Ltd., for Cpd. 1 is determined. […] Cpd. 1, dissolved in buffer, or just buffer is administered orally and the mice and rats are observed for 14 days after dosing. After 14 days, the animals are sacrified and necropsy is performed to check for gross evidence of toxicity.

CD-1 mice = details: 14 days
Protocol: as §1

L5178Y target cells = experiment: MLTC assay of CTL activity, L5178Y target cells; format: cell-based, mouse
From the text: A mixed lymphocyte tumor culture (MLTC) immunoassay, used to determine the cytotoxic lymphocyte (CTL) activity employs lymphocytes from either immunized (sensitized) mice or DBA/2 tumor dormant state animals in various stages of the tumor dormant state (TDS). The assay employs L5178Y target cells labeled with ^51 Chromium and effector cells (sensitized lymphocytes) from the above-mentioned sources. Effector-target cell ratios will vary with different experimental conditions and may or may not include irradiated stimulator L5178Y cells. Results are expressed as % lysis of target cells based on ratio of cpm of test group over cpm of total release (maximum) both of which are corrected for spontaneous release of ^51 Cr. The assay can be performed as an 8 or 18 hour release assay.
Ten days later the resultant tumor nodule, about 1 cm in size, is surgically excised. If the excision was successful, no subcutaneous tumors develop at the site of implantation. […] These mice are considered to be in the tumor dormant state.
The effect of Cpd. 1 on cytotoxic lymphocyte (CTL) activity is measured using five DBA/2 mice in the early stage of the TDS, 10 days after challenge with viable L5178Y tumor cells. Six doses of Cpd. 1, 0.001, 0.01, 0.1, 1.0, 10, or 100 μg/ml or just buffer are added in 100 μl volumes to MLTC microculture wells containing washed spleen lymphocytes from the DBA/2 mice, effector, and L5178Y target cells at varying E/T ratios. The MLTC reaction is performed in the presence or absence of irradiated L5178Y stimulator cells.
Five DBA/2 mice in the early stage of the TDS, 10 days after challenge with viable L5178Y tumor cells were used to measure the effect of Cpd. 1 on CTL activity. Two doses of Cpd. 1, 10, or 100 μg/ml, or just buffer were added in 100 μl volumes to the MLTC microculture wells containing washed spleen lymphocytes from the DBA/2 mice, effector and L5178Y target cells at varying E/T ratios. The MLTC reaction was performed in the presence or absence of irradiated L5178Y stimulator cells.
DBA/2 mice in the early stage of TDS, […] with viable L5178Y tumor cells, were used to measure the effect of Cpd. 2 on CTL activity. Cpd. 2, 0.1, 1.0, 10 or 100 μg/ml, or just buffer was added in 100 μl volumes to MLTC microculture wells containing washed spleen lymphocytes from DBA/2 mice, effector, and L5178Y target cells at varying E/T ratios. The MLTC reaction was performed in the presence or absence of irradiated L5178Y stimulator cells.
An MLTC assay is performed to assess the CTL activity and tumor target cell specificity of Cpd. 1. Tumor dormant spleen cells and normal spleen cells of DBA/2 mice are used as effector cells. Irradiated L5178Y cells are used as stimulator cells. ^51 Cr-labeled L5178Y cells and FLC-745 cells are used as target cells. The effector/target ratios studied are 100:1, 30:1 and 10:1.

## Cc1ccc(C2(O)C(=O)OC3C(O)COC32O)o1.Cc1ccc(C2(O)C(=O)OC3C(O)COC32O)o1.O=C1CCC(=O)O1 (stereo not shown) [Cpd. 1]
CD rats; single oral 5 g/kg
  deaths or signs of toxicity: No deaths or signs of toxicity
CD rats; single oral dose
  LD50: > 5000 mg/kg
CD-1 mice; single oral 5 g/kg
  deaths or signs of toxicity: No deaths or signs of toxicity
CD-1 mice; single oral dose
  LD50: > 5000 mg/kg
L5178Y target cells; 0.001 μg/ml, E/T 10:1, TDS DBA/2, with stimulator cells
  % Lysis: 16.7%
L5178Y target cells; 0.001 μg/ml, E/T 10:1, TDS DBA/2, without stimulator cells
  % Lysis: 3.9%
L5178Y target cells; 0.001 μg/ml, E/T 30:1, TDS DBA/2, with stimulator cells
  % Lysis: 40.2%
L5178Y target cells; 0.001 μg/ml, E/T 30:1, TDS DBA/2, without stimulator cells
  % Lysis: 12.2%
L5178Y target cells; 0.001 μg/ml, E/T 100:1, TDS DBA/2, with stimulator cells
  % Lysis: 71.1%
L5178Y target cells; 0.001 μg/ml, E/T 100:1, TDS DBA/2, without stimulator cells
  % Lysis: 23.4%
L5178Y target cells; 0.01 μg/ml, E/T 10:1, TDS DBA/2, with stimulator cells
  % Lysis: 20.6%
L5178Y target cells; 0.01 μg/ml, E/T 10:1, TDS DBA/2, without stimulator cells
  % Lysis: 3.5%
L5178Y target cells; 0.01 μg/ml, E/T 30:1, TDS DBA/2, with stimulator cells
  % Lysis: 55.8%
L5178Y target cells; 0.01 μg/ml, E/T 30:1, TDS DBA/2, without stimulator cells
  % Lysis: 15.7%
L5178Y target cells; 0.01 μg/ml, E/T 100:1, TDS DBA/2, with stimulator cells
  % Lysis: 77.1%
L5178Y target cells; 0.01 μg/ml, E/T 100:1, TDS DBA/2, without stimulator cells
  % Lysis: 26.0%
L5178Y target cells; 0.1 μg/ml, E/T 10:1, TDS DBA/2, with stimulator cells
  % Lysis: 20.2%
L5178Y target cells; 0.1 μg/ml, E/T 10:1, TDS DBA/2, without stimulator cells
  % Lysis: 3.5%
L5178Y target cells; 0.1 μg/ml, E/T 30:1, TDS DBA/2, with stimulator cells
  % Lysis: 51.0%
L5178Y target cells; 0.1 μg/ml, E/T 30:1, TDS DBA/2, without stimulator cells
  % Lysis: 14.8%
L5178Y target cells; 0.1 μg/ml, E/T 100:1, TDS DBA/2, with stimulator cells
  % Lysis: 79.0%
L5178Y target cells; 0.1 μg/ml, E/T 100:1, TDS DBA/2, without stimulator cells
  % Lysis: 31.6%
L5178Y target cells; 1.0 μg/ml, E/T 10:1, TDS DBA/2, with stimulator cells
  % Lysis: 15.6%
L5178Y target cells; 1.0 μg/ml, E/T 10:1, TDS DBA/2, without stimulator cells
  % Lysis: 4.6%
L5178Y target cells; 1.0 μg/ml, E/T 30:1, TDS DBA/2, with stimulator cells
  % Lysis: 46.0%
L5178Y target cells; 1.0 μg/ml, E/T 30:1, TDS DBA/2, without stimulator cells
  % Lysis: 20.0%
L5178Y target cells; 1.0 μg/ml, E/T 100:1, TDS DBA/2, with stimulator cells
  % Lysis: 71.5%
L5178Y target cells; 1.0 μg/ml, E/T 100:1, TDS DBA/2, without stimulator cells
  % Lysis: 40.1%
L5178Y target cells; 10 μg/ml, E/T 6.25:1, TDS DBA/2, with stimulator cells
  % Lysis: 60.5%
L5178Y target cells; 10 μg/ml, E/T 6.25:1, TDS DBA/2, without stimulator cells
  % Lysis: .7%
L5178Y target cells; 10 μg/ml, E/T 10:1, TDS DBA/2, with stimulator cells
  % Lysis: 15.9%
L5178Y target cells; 10 μg/ml, E/T 10:1, TDS DBA/2, without stimulator cells
  % Lysis: 4.6%
L5178Y target cells; 10 μg/ml, E/T 12.5:1, TDS DBA/2, with stimulator cells
  % Lysis: 67.1%
L5178Y target cells; 10 μg/ml, E/T 12.5:1, TDS DBA/2, without stimulator cells
  % Lysis: 6.9%
L5178Y target cells; 10 μg/ml, E/T 25:1, TDS DBA/2, with stimulator cells
  % Lysis: 72.0%
L5178Y target cells; 10 μg/ml, E/T 25:1, TDS DBA/2, without stimulator cells
  % Lysis: 8.1%
L5178Y target cells; 10 μg/ml, E/T 30:1, TDS DBA/2, with stimulator cells
  % Lysis: 42.0%
L5178Y target cells; 10 μg/ml, E/T 30:1, TDS DBA/2, without stimulator cells
  % Lysis: 16.8%
L5178Y target cells; 10 μg/ml, E/T 50:1, TDS DBA/2, with stimulator cells
  % Lysis: 75.7%
L5178Y target cells; 10 μg/ml, E/T 50:1, TDS DBA/2, without stimulator cells
  % Lysis: 12.8%
L5178Y target cells; 10 μg/ml, E/T 100:1, TDS DBA/2, with stimulator cells
  % Lysis: 74.3%
L5178Y target cells; 10 μg/ml, E/T 100:1, TDS DBA/2, without stimulator cells
  % Lysis: 36.3%
L5178Y target cells; 100 μg/ml, E/T 6.25:1, TDS DBA/2, with stimulator cells
  % Lysis: 56.3%
L5178Y target cells; 100 μg/ml, E/T 6.25:1, TDS DBA/2, without stimulator cells
  % Lysis: 6.1%
L5178Y target cells; 100 μg/ml, E/T 10:1, TDS DBA/2, with stimulator cells
  % Lysis: 21.2%
L5178Y target cells; 100 μg/ml, E/T 10:1, TDS DBA/2, without stimulator cells
  % Lysis: 8.6%
L5178Y target cells; 100 μg/ml, E/T 12.5:1, TDS DBA/2, with stimulator cells
  % Lysis: 75.7%
L5178Y target cells; 100 μg/ml, E/T 12.5:1, TDS DBA/2, without stimulator cells
  % Lysis: 11.1%
L5178Y target cells; 100 μg/ml, E/T 25:1, TDS DBA/2, with stimulator cells
  % Lysis: 79.8%
L5178Y target cells; 100 μg/ml, E/T 25:1, TDS DBA/2, without stimulator cells
  % Lysis: 16.6%
L5178Y target cells; 100 μg/ml, E/T 30:1, TDS DBA/2, with stimulator cells
  % Lysis: 54.2%
L5178Y target cells; 100 μg/ml, E/T 30:1, TDS DBA/2, without stimulator cells
  % Lysis: 18.7%
L5178Y target cells; 100 μg/ml, E/T 50:1, TDS DBA/2, with stimulator cells
  % Lysis: 71.6%
L5178Y target cells; 100 μg/ml, E/T 50:1, TDS DBA/2, without stimulator cells
  % Lysis: 21.8%
L5178Y target cells; 100 μg/ml, E/T 100:1, TDS DBA/2, with stimulator cells
  % Lysis: 87.3%
L5178Y target cells; 100 μg/ml, E/T 100:1, TDS DBA/2, without stimulator cells
  % Lysis: 42.0%
L5178Y target cells; E + D (TDS effector, no stimulator), E/T 10:1
  % Lysis: 9.0%
L5178Y target cells; E + D (TDS effector, no stimulator), E/T 30:1
  % Lysis: 29.8%
L5178Y target cells; E + D (TDS effector, no stimulator), E/T 100:1
  % Lysis: 52.8%
L5178Y target cells; E + S + D (TDS effector, stimulator), E/T 10:1
  % Lysis: 34.9%
L5178Y target cells; E + S + D (TDS effector, stimulator), E/T 30:1
  % Lysis: 69.2%
L5178Y target cells; E + S + D (TDS effector, stimulator), E/T 100:1
  % Lysis: 82.3%
L5178Y target cells; N + D (normal effector, no stimulator), E/T 10:1
  % Lysis: -10.3%
L5178Y target cells; N + D (normal effector, no stimulator), E/T 30:1
  % Lysis: -11.4%
L5178Y target cells; N + D (normal effector, no stimulator), E/T 100:1
  % Lysis: -12.4%
L5178Y target cells; N + S + D (normal effector, stimulator), E/T 10:1
  % Lysis: -10.9%
L5178Y target cells; N + S + D (normal effector, stimulator), E/T 30:1
  % Lysis: -9.7%
L5178Y target cells; N + S + D (normal effector, stimulator), E/T 100:1
  % Lysis: -9.5%
L5178Y target cells; in the presence of stimulator cells (Example 28)
  CTL activity of effector cells: significant specific enhancement of CTL activity
L5178Y target cells; several concentrations, any E/T ratio, with or without stimulator cells, TDS
  CTL activity: significant increase in CTL activity
